Several values for one entry are separate records, joined by “and”; a condition that tells them apart may be missing. Equal values may be shown once. Read-outs that look alike come from different tables or passages of the source.
Experiments:
[1] = Solubility behaviour in testing buffer of the IC50 assay; assay type: physicochemical; conditions: result in words
[2] = test system: E. coli BL21 (DE3)/pET30a-NDM-1; experiment: microbe, parasite or virus in culture; assay type: cell-based; conditions: for sensitization of the strain to clinically achievable concentrations of meropenem: inhibitor at the level of 100 µM; for sensitization of the strain to clinically achievable concentrations of meropenem / synergistic antibacterial activity with meropenem: result in words
Method: E. coli BL21 (DE3) was used as a control in the experiment. E. coli BL21 (DE3)/pET30a-NDM-1 was grown overnight in MH broth media (Tianhe Microbial Agents, Hangzhou, China) containing kanamycin (30 µg/ml) at 37°C. Determination of antibacterial synergy was completed using a twofold serial dilution method, as recommended by CLSI guidelines. […] The 96-well microplates were incubated at 37°C with continuous shaking for 18 h and a reading at 630 nm was taken to determine minimum inhibitory concentrations (MICs), [22]. […] Each concentration reading was repeated three times. All of the above experiments were repeated at least twice.

full-length NDM-1 [3] = molecular target: T1, full-length NDM-1 (Klebsiella pneumoniae, UniProt C7C422); experiment: biochemical
Method: The compounds to be tested were dissolved in DMSO prior to incubation with the enzyme, with the final concentration of DMSO in the assay not exceeding 0.5% (vol/vol). At concentrations below 0.5%, no effect of DMSO on the enzyme activity was observed. IC50s were deduced from a plot of percent loss of activity versus inhibitor concentration. […] The precision of these determinations was within the range of precision 10%.

full-length NDM-1 [4] = molecular target: T1, full-length NDM-1; assay type: biochemical, E. coli; set-up: The full-length NDM-1 enzyme was isolated to 95% purity as indicated by the SDS-PAGE; His6 tag (pET30a leader) (N, cleaved yes); made in house; host or cells: E. coli BL21 (DE3) carrying pET30a-NDM-1
Text: (§1) Benzylpenicillin (Sangon, Shanghai, China), ampicillin (Sangon, Shanghai, China), cefuroxime (Sigma, St. Louis, USA), ceftazidime (TCI, Shanghai, China), ceftizoxime (TCI, Shanghai, China), cefpiramide (Shandong Lukang, Shandong, China), imipenem (Shenzhen Haibin, Guangdong, China), meropenem (Zhejiang Hisun, Zhejiang, China) and aztreonam (Hunan Kelun, Hunan, China) were used as substrates for determining the steady-state kinetic constants.
(§2) Hydrolysis of the antibiotics by NDM-1 was followed by monitoring the variation in the absorbance of the β-lactam solution in 20 mM HEPES buffer, pH 6.8, 0.25 M NaCl, 2 mM 1,4-Dithio-DL-threitol (DTT) (Sangon, Shanghai, China), 100 µM Zn(NO3)2. All the measurements were made on a UV−1800 spectrophotometer (Mapada, Shanghai, China). The reactions were performed in a total volume of 100 µl at 30°C. BSA (20 µg/ml) was added to diluted solutions of β-lactamase in order to prevent enzyme denaturation. […] The extinction coefficients and wavelengths used in the assays were those described by Laraki et al and Thomas et al. The steady-state kinetic parameters (K m and k cat) were determined more than three times by fitting the concentration dependence of initial rate measurements to the Michaelis−Menten equation using GraphPad Prism (GraphPad Software, La Jolla, America).

[5] = test system: CO/N=C(\C(=O)N[C@@H]1C(=O)N2C(C(=O)O)=CCS[C@H]12)c1csc(N)n1; experiment: purified protein, by the assay type; conditions: other: substrate hydrolysis, 20 mM HEPES pH 6.8, 30°C
[6] = test system: Cc1cc(O)c(C(=O)N[C@@H](C(=O)N[C@@H]2C(=O)N3C(C(=O)O)=C(CSc4nnnn4C)CS[C@H]23)c2ccc(O)cc2)cn1; experiment: purified protein, by the assay type; conditions: other: substrate hydrolysis, 20 mM HEPES pH 6.8, 30°C
[7] = test system: CC1(C)S[C@@H]2[C@H](NC(=O)Cc3ccccc3)C(=O)N2[C@H]1C(=O)O; experiment: purified protein, by the assay type; assay type: biochemical, E. coli; conditions: other: substrate hydrolysis, 20 mM HEPES pH 6.8, 30°C
Text: as §1, §2

[8] = test system: C[C@@H](O)[C@H]1C(=O)N2C(C(=O)O)=C(SCCN=CN)C[C@H]12; experiment: purified protein, by the assay type; assay type: biochemical, E. coli; conditions: other: substrate hydrolysis, 20 mM HEPES pH 6.8, 30°C
Text: as §1, §2

[9] = test system: CC1(C)S[C@@H]2[C@H](NC(=O)[C@H](N)c3ccccc3)C(=O)N2[C@H]1C(=O)O; experiment: purified protein, by the assay type; assay type: biochemical, E. coli; conditions: other: substrate hydrolysis, 20 mM HEPES pH 6.8, 30°C
Text: as §1, §2

[10] = test system: CC(C)(O/N=C(\C(=O)N[C@@H]1C(=O)N2C(C(=O)[O-])=C(C[n+]3ccccc3)CS[C@H]12)c1csc(N)n1)C(=O)O; experiment: purified protein, by the assay type; assay type: biochemical, E. coli; conditions: other: substrate hydrolysis, 20 mM HEPES pH 6.8, 30°C
Text: as §1, §2

[11] = test system: CO/N=C(\C(=O)N[C@@H]1C(=O)N2C(C(=O)O)=C(COC(N)=O)CS[C@H]12)c1ccco1; experiment: purified protein, by the assay type; assay type: biochemical, E. coli; conditions: other: substrate hydrolysis, 20 mM HEPES pH 6.8, 30°C
Text: as §1, §2

E. coli BL21 (DE3) = experiment: MIC of meropenem against control strain; assay type: cell-based; conditions: Escherichia coli
Method: E. coli BL21 (DE3)/pET30a-NDM-1, which is similar to clinical NDM-1-carrying isolates and safer than clinical isolates, was used to evaluate the potential ability of NDM-1 inhibitors to reverse NDM-1-mediated carbapenem resistance in bacteria. E. coli BL21 (DE3) was used as a control in the experiment. E. coli BL21 (DE3)/pET30a-NDM-1 was grown overnight in MH broth media (Tianhe Microbial Agents, Hangzhou, China) containing kanamycin (30 µg/ml) at 37°C. Determination of antibacterial synergy was completed using a twofold serial dilution method, as recommended by CLSI guidelines. […] The 96-well microplates were incubated at 37°C with continuous shaking for 18 h and a reading at 630 nm was taken to determine minimum inhibitory concentrations (MICs), [22]. […] Each concentration reading was repeated three times. All of the above experiments were repeated at least twice.

[12] = substrate hydrolysis, 20 mM HEPES pH 6.8, 30°C

T1 sequence (C7C422 29-270 limits assumed): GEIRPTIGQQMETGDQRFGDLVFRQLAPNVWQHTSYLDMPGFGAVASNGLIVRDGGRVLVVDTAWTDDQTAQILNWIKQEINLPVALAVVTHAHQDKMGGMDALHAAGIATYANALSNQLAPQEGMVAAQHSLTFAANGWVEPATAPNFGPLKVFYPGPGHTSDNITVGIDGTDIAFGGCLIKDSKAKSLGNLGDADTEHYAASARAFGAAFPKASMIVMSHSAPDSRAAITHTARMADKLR

Molecule	MICs of meropenem in combination with NDM-1 inhibitors ([2]; inhibitor at 6.25 µM)	MICs of meropenem in combination with NDM-1 inhibitors ([2]; inhibitor at 12.5 µM)	MICs of meropenem in combination with NDM-1 inhibitors ([2]; inhibitor at 25.0 µM)	MICs of meropenem in combination with NDM-1 inhibitors ([2]; inhibitor at 50.0 µM)	synergistic antibacterial activity with meropenem [2]	IC50 (full-length NDM-1 [3])	K m (full-length NDM-1 [4]; [12])	further results
O=C(O)C(C(=O)O)c1cc(Cc2nnn[nH]2)sc1Cc1nnn[nH]1 [Compound 4]	128 µg/mL	64 µg/mL	64 µg/mL	32 µg/mL	showed synergistic antibacterial activity	280 µM	–	solubility [1]: stronger solubility; MICs of meropenem in combination with NDM-1 inhibitors ([2]; inhibitor at 100.0 µM): 16 µg/mL; sensitization of the strain to clinically achievable concentrations of meropenem [2]: able to sensitize the strain to clinically achievable concentrations of meropenem
CC1(C)S[C@@H]2[C@H](NC(=O)[C@H](N)c3ccccc3)C(=O)N2[C@H]1C(=O)O [Ampicillin, ampicillin]	–	–	–	–	–	–	18 ± 1 µM	K m (full-length NDM-1 [4]; substrate hydrolysis, 20 mM HEPES pH 6.8, 30°C, listed as ampicillin): 18 µM
full-length NDM-1 (Klebsiella pneumoniae)	–	–	–	–	–	–	–	kcat [5]: 3 s⁻¹; kcat/Km [5]: 100000 M⁻¹ s⁻¹; kcat [6]: 1.4 s⁻¹; kcat/Km [6]: 40000 M⁻¹ s⁻¹; kcat [7]: 10 s⁻¹ and 16.7 s⁻¹; kcat/Km [7]: 1.28e+06 M⁻¹ s⁻¹; kcat [8]: 10 s⁻¹ and 10.8 s⁻¹; kcat/Km [8]: 90000 M⁻¹ s⁻¹; kcat [9]: 10 s⁻¹ and 11.4 s⁻¹; kcat/Km [9]: 630000 M⁻¹ s⁻¹; kcat [10]: 3.6 s⁻¹; kcat/Km [10]: 30000 M⁻¹ s⁻¹; kcat [11]: 2.6 s⁻¹; kcat/Km [11]: 220000 M⁻¹ s⁻¹
CO/N=C(\C(=O)N[C@@H]1C(=O)N2C(C(=O)O)=C(COC(N)=O)CS[C@H]12)c1ccco1 [Cefuroxime, cefuroxime]	–	–	–	–	–	–	12 µM and 12 ± 1 µM	–
CC1(C)S[C@@H]2[C@H](NC(=O)Cc3ccccc3)C(=O)N2[C@H]1C(=O)O [Benzylpenicillin]	–	–	–	–	–	–	13 ± 1 µM	K m (full-length NDM-1 [4]; substrate hydrolysis, 20 mM HEPES pH 6.8, 30°C, listed as benzylpenicillin): 13 µM
O=C(O)C(C(=O)O)c1ccsc1 [Compound 5, 3-thiophenemalonic acid]	256 µg/mL	128 µg/mL	64 µg/mL	32 µg/mL	showed synergistic antibacterial activity	610 µM	–	MICs of meropenem in combination with NDM-1 inhibitors ([2]; inhibitor at 100.0 µM): 16 µg/mL; sensitization of the strain to clinically achievable concentrations of meropenem [2]: able to sensitize the strain to clinically achievable concentrations of meropenem
COC(=O)c1sc(C(=O)OC)c(OCc2nnn[nH]2)c1OCc1nnn[nH]1 [Compound 3]	256 µg/mL	256 µg/mL	128 µg/mL	32 µg/mL	showed synergistic antibacterial activity	980 µM	–	solubility [1]: better solubility; MICs of meropenem in combination with NDM-1 inhibitors ([2]; inhibitor at 100.0 µM): 32 µg/mL
CO/N=C(\C(=O)N[C@@H]1C(=O)N2C(C(=O)O)=CCS[C@H]12)c1csc(N)n1 [Ceftizoxime, ceftizoxime]	–	–	–	–	–	–	29 ± 2 µM	–
C[C@@H](O)[C@H]1C(=O)N2C(C(=O)O)=C(SCCN=CN)C[C@H]12 [Imipenem, imipenem]	–	–	–	–	–	–	127 ± 11 µM	K m (full-length NDM-1 [4]; substrate hydrolysis, 20 mM HEPES pH 6.8, 30°C, listed as imipenem): 127 µM
C[C@H]1[C@H](NC(=O)/C(=N\OC(C)(C)C(=O)O)c2csc(N)n2)C(=O)N1S(=O)(=O)O [Aztreonam, aztreonam]	–	–	–	–	–	–	–	hydrolysis by NDM-1 / kinetic constants (full-length NDM-1 [4]; result in words): kinetic constants could not be calculated
C[C@@H](O)[C@H]1C(=O)N2C(C(=O)O)=C(S[C@@H]3CN[C@H](C(=O)N(C)C)C3)[C@H](C)[C@H]12 [Meropenem, meropenem]	–	–	–	–	–	–	68 ± 6 µM	V max (full-length NDM-1 [4]; [12]): 2.0 ± 0.15 µM/s; k cat (full-length NDM-1 [4]; [12]): 4.0 s⁻¹; K m (full-length NDM-1 [4]; substrate hydrolysis, 20 mM HEPES pH 6.8, 30°C, listed as meropenem): 68 µM; MIC ([2]; Escherichia coli): 256 µg/mL; MIC (E. coli BL21 (DE3)): 2 µg/mL
COC(=O)c1sc(C(=O)OC)c(OCc2ccccc2)c1OCc1ccccc1 [Compound 2]	256 µg/mL	256 µg/mL	256 µg/mL	256 µg/mL	did not exhibited synergistic antibacterial effect	> 100 µM	–	solubility [1]: precipitated out at high concentrations
Cc1cc(O)c(C(=O)N[C@@H](C(=O)N[C@@H]2C(=O)N3C(C(=O)O)=C(CSc4nnnn4C)CS[C@H]23)c2ccc(O)cc2)cn1 [Cefpiramide, cefpiramide]	–	–	–	–	–	–	39 ± 3 µM	–
COC(=O)c1cc(OCc2ccccc2)c(C(=O)OC)s1 [Compound 1]	256 µg/mL	256 µg/mL	256 µg/mL	256 µg/mL	did not exhibited synergistic antibacterial effect	> 300 µM	–	solubility [1]: precipitated out at high concentrations
CC(C)(O/N=C(\C(=O)N[C@@H]1C(=O)N2C(C(=O)[O-])=C(C[n+]3ccccc3)CS[C@H]12)c1csc(N)n1)C(=O)O [Ceftazidime, ceftazidime]	–	–	–	–	–	–	129 ± 9 µM	K m (full-length NDM-1 [4]; substrate hydrolysis, 20 mM HEPES pH 6.8, 30°C, listed as ceftazidime): 129 µM

— publication PMC3652859, “Inhibitor Discovery of Full-Length New Delhi Metallo-β-Lactamase-1 (NDM-1)” (PLoS ONE, 2013)
